Experimental findings from US10968215B2 (SHANGHAI HAIHE PHARMACEUTICAL CO., LTD., priority 2016, dated 2021) are described below.

Sequence of PRC2 complex (EZH2 Y641F/EED/SUZ12/RbAp48/AEBP2) (Q15910 whole entry Y641F): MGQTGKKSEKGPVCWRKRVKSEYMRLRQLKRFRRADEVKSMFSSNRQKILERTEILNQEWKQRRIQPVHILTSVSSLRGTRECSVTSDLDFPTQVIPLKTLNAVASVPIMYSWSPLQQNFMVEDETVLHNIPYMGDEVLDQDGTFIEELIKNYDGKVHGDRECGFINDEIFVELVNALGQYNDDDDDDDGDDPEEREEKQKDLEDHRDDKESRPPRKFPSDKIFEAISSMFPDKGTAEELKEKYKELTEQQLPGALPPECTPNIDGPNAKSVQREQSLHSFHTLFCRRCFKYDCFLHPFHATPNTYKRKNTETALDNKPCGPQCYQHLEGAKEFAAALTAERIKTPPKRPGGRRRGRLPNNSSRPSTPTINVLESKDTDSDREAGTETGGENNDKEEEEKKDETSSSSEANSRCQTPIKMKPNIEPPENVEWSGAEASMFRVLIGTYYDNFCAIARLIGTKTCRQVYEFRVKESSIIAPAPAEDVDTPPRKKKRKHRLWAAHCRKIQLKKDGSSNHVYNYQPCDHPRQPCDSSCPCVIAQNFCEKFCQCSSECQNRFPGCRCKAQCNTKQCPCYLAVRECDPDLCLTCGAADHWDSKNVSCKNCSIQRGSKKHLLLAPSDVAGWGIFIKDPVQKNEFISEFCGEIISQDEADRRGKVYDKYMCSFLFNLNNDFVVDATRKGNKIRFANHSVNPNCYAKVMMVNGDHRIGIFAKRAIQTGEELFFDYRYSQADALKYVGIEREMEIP
Sequence of PRC2 complex (EZH2 Y641F/EED/SUZ12/RbAp48/AEBP2) (O75530 whole entry partner): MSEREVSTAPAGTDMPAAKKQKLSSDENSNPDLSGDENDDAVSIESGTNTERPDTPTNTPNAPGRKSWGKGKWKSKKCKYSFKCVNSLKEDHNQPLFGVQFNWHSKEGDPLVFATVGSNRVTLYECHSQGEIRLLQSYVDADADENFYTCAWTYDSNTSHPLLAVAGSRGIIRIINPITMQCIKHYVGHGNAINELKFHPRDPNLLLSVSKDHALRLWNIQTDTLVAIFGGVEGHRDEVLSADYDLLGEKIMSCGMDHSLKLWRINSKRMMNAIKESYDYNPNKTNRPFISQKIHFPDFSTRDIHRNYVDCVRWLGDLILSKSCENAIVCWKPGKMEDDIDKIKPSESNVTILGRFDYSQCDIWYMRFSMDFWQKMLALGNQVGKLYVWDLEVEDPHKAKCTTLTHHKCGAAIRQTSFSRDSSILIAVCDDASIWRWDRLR
Sequence of PRC2 complex (EZH2 Y641F/EED/SUZ12/RbAp48/AEBP2) (Q15022 whole entry partner): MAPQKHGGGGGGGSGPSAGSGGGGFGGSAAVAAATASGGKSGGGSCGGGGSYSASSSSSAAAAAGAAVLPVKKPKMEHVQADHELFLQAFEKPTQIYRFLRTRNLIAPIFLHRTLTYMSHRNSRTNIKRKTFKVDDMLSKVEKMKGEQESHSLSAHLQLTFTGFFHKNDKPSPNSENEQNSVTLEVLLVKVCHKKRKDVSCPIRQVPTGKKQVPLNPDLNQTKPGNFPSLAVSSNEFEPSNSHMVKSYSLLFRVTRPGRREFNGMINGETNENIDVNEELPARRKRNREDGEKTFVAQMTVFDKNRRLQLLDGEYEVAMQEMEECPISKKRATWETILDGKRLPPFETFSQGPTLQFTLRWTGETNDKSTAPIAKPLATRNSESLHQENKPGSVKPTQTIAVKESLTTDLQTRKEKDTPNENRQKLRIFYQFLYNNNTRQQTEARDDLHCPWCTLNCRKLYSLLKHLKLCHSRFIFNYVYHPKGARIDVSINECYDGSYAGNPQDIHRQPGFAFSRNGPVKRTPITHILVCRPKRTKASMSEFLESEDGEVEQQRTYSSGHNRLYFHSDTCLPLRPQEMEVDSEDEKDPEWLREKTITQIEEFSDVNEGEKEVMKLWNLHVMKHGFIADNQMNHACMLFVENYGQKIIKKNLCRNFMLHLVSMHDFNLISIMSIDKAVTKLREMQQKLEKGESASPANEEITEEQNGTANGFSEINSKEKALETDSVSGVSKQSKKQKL
Sequence of PRC2 complex (EZH2 Y641F/EED/SUZ12/RbAp48/AEBP2) (Q09028 whole entry partner): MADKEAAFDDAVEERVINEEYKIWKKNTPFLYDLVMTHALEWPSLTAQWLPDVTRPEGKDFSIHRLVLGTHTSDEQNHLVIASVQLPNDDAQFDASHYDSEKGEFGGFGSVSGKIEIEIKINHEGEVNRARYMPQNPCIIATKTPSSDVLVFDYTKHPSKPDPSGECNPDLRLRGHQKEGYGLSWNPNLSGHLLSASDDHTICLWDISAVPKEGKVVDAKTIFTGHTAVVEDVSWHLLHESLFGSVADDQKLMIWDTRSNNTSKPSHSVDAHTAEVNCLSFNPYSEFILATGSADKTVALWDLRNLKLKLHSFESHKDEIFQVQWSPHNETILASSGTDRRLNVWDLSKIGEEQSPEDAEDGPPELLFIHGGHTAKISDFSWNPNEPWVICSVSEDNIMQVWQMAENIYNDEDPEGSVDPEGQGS
Sequence of PRC2 complex (EZH2 Y641F/EED/SUZ12/RbAp48/AEBP2) (Q6ZN18 whole entry partner): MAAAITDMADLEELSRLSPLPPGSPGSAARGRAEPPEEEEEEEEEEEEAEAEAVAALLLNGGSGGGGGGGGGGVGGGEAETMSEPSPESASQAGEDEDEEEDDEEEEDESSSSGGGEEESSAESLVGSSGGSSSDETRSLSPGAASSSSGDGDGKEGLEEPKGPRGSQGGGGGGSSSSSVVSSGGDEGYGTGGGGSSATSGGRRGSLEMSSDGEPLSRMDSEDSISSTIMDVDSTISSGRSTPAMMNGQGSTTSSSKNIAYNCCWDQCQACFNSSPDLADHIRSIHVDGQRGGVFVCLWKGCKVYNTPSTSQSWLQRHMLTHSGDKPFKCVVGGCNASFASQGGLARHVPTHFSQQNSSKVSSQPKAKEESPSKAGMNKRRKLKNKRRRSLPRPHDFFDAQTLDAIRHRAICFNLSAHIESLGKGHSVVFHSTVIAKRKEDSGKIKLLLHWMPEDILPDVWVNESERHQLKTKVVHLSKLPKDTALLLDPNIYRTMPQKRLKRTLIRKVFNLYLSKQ

One assay has as its target PRC2 complex (EZH2 Y641F/EED/SUZ12/RbAp48/AEBP2) (Homo sapiens (Human), UniProt Q15910, Y641F). In words: Activity of a compound to PRC2 complex (EZH2 Y641F), HTRF.
Conditions: not given
Background: Time-resolved FRET reads energy transfer from a long-lived donor to a nearby acceptor.
Usually IC50 stands for the concentration that inhibits the measured activity by half. Regarding `COC1CCN(C(C)c2c(C)c(C(=O)NCc3c(C)cc(C)[nH]c3=O)cc3cc(Br)cn23)CC1` (centres unmarked) [Example 143, 2-Bromo-N-((4,6-dimethyl-2-oxo-1,2-dihydropyridin-3-yl)methyl)-6-methyl-5-(1-(4-methoxypiperidin-1-yl)ethyl)indolizine-7-carboxamide], the IC50 was in the range of 100 to 1000 nM.

Still in this assay, the particulars now being: read-out: IC50 (EZH2_Y641F); EZH2 Y641F PRC2 complex, HTRF; class symbols.
Turning to `COc1cc(C)[nH]c(=O)c1CNC(=O)c1cc2cc(-c3cncs3)cn2c(C(C)N2CCN(CC(F)(F)F)CC2)c1C` (centres unmarked) [Example 142, N-((4-methoxy-6-methyl-2-oxo-1,2-dihydropyridin-3-yl)methyl)-6-methyl-2-(thiazole-5-yl)-5-(1-(4-(2,2,2-trifluoroethyl)piperazin-1-yl)ethyl)indolizine-7-carboxamide], the IC50 was below 100 nM.
Same read-out and setting: as for `Cc1cc(C)c(CNC(=O)c2cc3cc(Br)cn3c(C(C)N3CCC(N4CCCC4)CC3)c2C)c(=O)[nH]1` (centres unmarked) [Example 144, 2-bromo-N-((4,6-dimethyl-2-oxo-1,2-dihydropyridin-3-yl)methyl)-5-(1-(4-hydroxypiperidin-1-yl)ethyl)-6-indolizine-7-carboxamide], the figure is 100 to 1000 nM; as for `Cc1cc(C)c(CNC(=O)c2cc3cc(Br)cn3c(C(C)N3CCC(N4CCCC4)CC3)c2C)c(=O)[nH]1` (centres unmarked) [Example 145, 2-bromo-N-((4,6-dimethyl-2-oxo-1,2-dihydropyridin-3-yl)methyl)-6-methyl-5-(1-(4-(pyrrolidin-1-yl)piperidin-1-yl)ethyl)indolizine-7-carboxamide], 100 to 1000 nM; as for `Cc1cc(C)c(CNC(=O)c2cc3cc(Br)cn3c(C(C)N3CCC(C#N)CC3)c2C)c(=O)[nH]1` (centres unmarked) [Example 146, 2-bromo-5-(1-(4-cyanopiperidin-1-yl)ethyl)-N-((4,6-dimethyl-2-oxo-1,2-dihydropyridin-3-yl)methyl)-6-methylindolizine-7-carboxamide], 100 to 1000 nM.
On the same count and under the same terms, as for “(S)-1-Chloro-N-((4,6-dimethyl-2-oxo-1,2-dihydropyridin-3-yl)methyl)-6-methyl-5-(1-morphinolinylethyl)pyridazin-7-carboxamide or (R)-1-chloro-N-((4,6-dimethyl-2-oxo-1,2-dihydro)pyridin-3-yl)methyl)-6-methyl-5-(1-morphinolinylethyl)pyridazin-7-carboxamide [Compound 29]”, the figure is 100 to 1000 nM.
The same measure, in the same setting: then “(S)-1-Chloro-N-((4,6-dimethyl-2-oxo-1,2-dihydropyridin-3-yl)methyl)-6-methyl-5-(1-morphinolinylethyl)pyridazin-7-carboxamide or (R)-1-chloro-N-((4,6-dimethyl-2-oxo-1,2-dihydro)pyridin-3-yl)methyl)-6-methyl-5-(1-morphinolinylethyl)pyridazin-7-carboxamide [Example 28]”, with below 100 nM.
On to “N-((4,6-dimethyl-2-oxo-1,2-dihydropyridin-3-yl)methyl)-2-(3-((dimethylamino)methyl)phen yl))-6-methyl-5-(1-morpholineethyl)indolizine-7-amide [Example 74]”, for which the IC50 is below 100 nM.
Still for that read-out and setting: as for “N-((4,6-dimethyl-2-oxo-1,2-dihydropyridin-3-yl)methyl)-2-(4-((dimethylamino)methyl)phen yl))-6-methyl-5-(1-morpholinoethyl)indolizine-7-carboxamide [Example 75]”, the figure is 100 to 1000 nM.
Still for that read-out and setting: as for “N-((4,6-dimethyl-2-oxo-1,2-dihydropyridin-3-yl)methyl)-6-methyl-5-(1-morpholinylethyl)-2-(1-ethyl-1H-pyrazole)indolizine-7-carboxamide [Example 113]”, the figure is below 100 nM.
The same measure, in the same setting: as for “N-((4-methoxy-6-methyl-2-oxo-1,2-dihydropyridin-3-yl)methyl)-6-methyl-1-(2-methylpyridin-3-yl)-5-(1-(4-(2,2,2-trifluoroethyl)piperazin-1-yl)ethyl)indolizine-7-carboxamide [Compound 166]”, the figure is below 100 nM.
